Reference: patent US6472348B1, “Pyridone derivatives and herbicides” (Kumiai Chemical Industry Co., Ltd., priority 1996, dated 2002)

How the values were obtained:
[1] = tested on: monochoria (Mo); assay: Test Example 1: herbicidal effects by paddy field soil treatment; type: in vivo; conditions: 100 g of the active ingredient per 10 ares, 21st day after the application, index 0-5 of Table 47;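 note: grade of growth control; 5 = at least 90%; 4 = 70 to 90%; 3 = 50 to 70%; 2 = 30 to 50%; 1 = 10 to 30%; 0 = under 10%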
In short: (§1)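 Herbicidal effect was scored against a graded standard 21 days after treatment. Seeds were sown in puddled, leveled paddy soil flooded to 3 cm depth, and the active ingredient was applied at 100 g per 10 ares before greenhouse culture.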

[2] = tested on: bulrush (Sc); assay: as above; type: in vivo; conditions: 100 g of the active ingredient per 10 ares, 21st day after the application, index 0-5 of Table 47;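 note: grade of growth control; 5 = at least 90%; 4 = 70 to 90%; 3 = 50 to 70%; 2 = 30 to 50%; 1 = 10 to 30%; 0 = under 10%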
In short: as §1

[3] = tested on: barnyardgrass (Ec); assay: as above; type: in vivo; conditions: 100 g of the active ingredient per 10 ares, 21st day after the application, index 0-5 of Table 47
In short: as §1

[4] = tested on: China jute (Ab); assay: Test Example 9: crop plant selectivity by upland field foliage treatment (wheat), herbicidal effects; type: in vivo; set-up: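 grade of growth control; 5 = at least 90%; 4 = 70 to 90%; 3 = 50 to 70%; 2 = 30 to 50%; 1 = 10 to 30%; 0 = under 10%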; conditions: dose 1.6 g ai/10a, 14th day after treatment
In short: (§2)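 Wheat and broadleaf weeds were sown together in sand-filled pots and grown for 2 weeks in a greenhouse before foliar treatment. Herbicidal effect on weeds and phytotoxicity to wheat were scored visually against set grading standards on day 14 after treatment, with plants kept in the greenhouse.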

[5] = tested on: slender amaranth (Am); assay: as above; type: in vivo; set-up: scale not given here; conditions: dose 1.6 g ai/10a, 14th day after treatment
In short: as §2

[6] = tested on: pale smartweed (Po); assay: as above; type: in vivo; set-up: scale not given here; conditions: dose 1.6 g ai/10a, 14th day after treatment
In short: as §2

[7] = tested on: common lambsquarters (Ch); assay: as above; type: in vivo; set-up: scale not given here; conditions: dose 1.6 g ai/10a, 14th day after treatment
In short: as §2

[8] = tested on: Diaitaria ciliaris (Di); assay: Test Example 3: herbicidal effects by upland field foliage treatment; type: in vivo; set-up: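 grade of growth control; 5 = at least 90%; 4 = 70 to 90%; 3 = 50 to 70%; 2 = 30 to 50%; 1 = 10 to 30%; 0 = under 10%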; conditions: 100 g of the active ingredient per 10 ares, evaluated on the 14th day after treatment
In short: (§3)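 Weeds were sown in sand-filled pots (surface area: 120 cm^2), covered with soil and grown in a greenhouse for 2 weeks before foliar treatment. Plants then stayed in the greenhouse, and herbicidal effect was scored against graded standards on the 14th day after treatment.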

[9] = tested on: slender amaranth (Am); assay: as above; type: in vivo; set-up: scale not given here; conditions: 100 g of the active ingredient per 10 ares, evaluated on the 14th day after treatment
In short: as §3

[10] = tested on: pale smartweed (Po); assay: as above; type: in vivo; set-up: scale not given here; conditions: 100 g of the active ingredient per 10 ares, evaluated on the 14th day after treatment
In short: as §3

[11] = tested on: common lambsquarters (Ch); assay: as above; type: in vivo; set-up: scale not given here; conditions: 100 g of the active ingredient per 10 ares, evaluated on the 14th day after treatment
In short: as §3

[12] = tested on: rice flatsedge (Ci); assay: as above; type: in vivo; set-up: scale not given here; conditions: 100 g of the active ingredient per 10 ares, evaluated on the 14th day after treatment
In short: as §3

[13] = tested on: barnyardgrass (Ec); assay: as above; type: in vivo; set-up: scale not given here; conditions: 100 g of the active ingredient per 10 ares, evaluated on the 14th day after treatment
In short: as §3

[14] = tested on: slender amaranth (Am); assay: Test Example 2: herbicidal effects by upland field soil treatment; type: in vivo; conditions: 100 g of the active ingredient per 10 ares, 21st day after the application, index 0-5 of Table 47;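 note: grade of growth control; 5 = at least 90%; 4 = 70 to 90%; 3 = 50 to 70%; 2 = 30 to 50%; 1 = 10 to 30%; 0 = under 10%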
From the text: (§4) (Test on Herbicidal Effects by Upland Field Soil Treatment)

[15] = tested on: Digitaria ciliaris (Di); assay: as above; type: in vivo; conditions: 100 g of the active ingredient per 10 ares, 21st day after the application, index 0-5 of Table 47;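 note: grade of growth control; 5 = at least 90%; 4 = 70 to 90%; 3 = 50 to 70%; 2 = 30 to 50%; 1 = 10 to 30%; 0 = under 10%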
From the text: as §4

[16] = tested on: pale smartweed (Po); assay: as above; type: in vivo; conditions: 100 g of the active ingredient per 10 ares, 21st day after the application, index 0-5 of Table 47
From the text: as §4

[17] = tested on: common lambsquarters (Ch); assay: as above; type: in vivo; conditions: 100 g of the active ingredient per 10 ares, 21st day after the application, index 0-5 of Table 47
From the text: as §4

[18] = tested on: rice flatsedge (Ci); assay: as above; type: in vivo; conditions: 100 g of the active ingredient per 10 ares, 21st day after the application, index 0-5 of Table 47
From the text: as §4

[19] = tested on: barnyardgrass (Ec); assay: as above; type: in vivo; conditions: 100 g of the active ingredient per 10 ares, 21st day after the application, index 0-5 of Table 47
From the text: as §4

[20] = tested on: China jute (Ab); assay: Test Example 11: crop plant selectivity by upland field foliage treatment (corn), herbicidal effects; type: in vivo; set-up: scale not given here; conditions: upland field foliage treatment (corn test), dose 1.6 g ai/10a, 14th day after treatment
In short: (§5)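 Corn with pale smartweed, slender amaranth, common lambsquarters and China jute sown in sand-filled pots and grown 2 weeks in a greenhouse before foliage treatment. Herbicidal effect and crop phytotoxicity scored on day 14 after treatment against a rating standard.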

[21] = tested on: slender amaranth (Am); assay: as above; type: in vivo; set-up: scale not given here; conditions: upland field foliage treatment (corn test), dose 1.6 g ai/10a, 14th day after treatment
In short: as §5

[22] = tested on: pale smartweed (Po); assay: as above; type: in vivo; set-up: scale not given here; conditions: upland field foliage treatment (corn test), dose 1.6 g ai/10a, 14th day after treatment
In short: as §5

[23] = tested on: common lambsquarters (Ch); assay: as above; type: in vivo; set-up: scale not given here; conditions: upland field foliage treatment (corn test), dose 1.6 g ai/10a, 14th day after treatment
In short: as §5

[24] = tested on: green foxtail (Se); assay: Test Example 7: crop plant selectivity by upland field soil treatment (corn), herbicidal effects; type: in vivo; set-up: scale not given here; conditions: dose 6.3 g ai/10a, 21st day after application
In short: (§6)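 Greenhouse pot test in sand with soil cover over seeds of corn and weeds sown together; scored 21 d after treatment.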

[25] = tested on: China jute (Ab); assay: as above; type: in vivo; set-up: scale not given here; conditions: dose 6.3 g ai/10a, 21st day after application
In short: as §6

[26] = tested on: slender amaranth (Am); assay: as above; type: in vivo; set-up: scale not given here; conditions: dose 6.3 g ai/10a, 21st day after application
In short: as §6

[27] = tested on: pale smartweed (Po); assay: as above; type: in vivo; set-up: scale not given here; conditions: dose 6.3 g ai/10a, 21st day after application
In short: as §6

[28] = tested on: common lambsquarters (Ch); assay: as above; type: in vivo; set-up: scale not given here; conditions: dose 6.3 g ai/10a, 21st day after application
In short: as §6

[29] = tested on: green foxtail (Se); assay: Test Example 4: crop plant selectivity by upland field soil treatment (cotton), herbicidal effects; type: in vivo; set-up: scale not given here; conditions: dose 6.3 g ai/10 a, evaluated 21st day after application
In short: (§7)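 Seeds of cotton and several weed species were sown in sand-filled pots and covered with soil before soil treatment with the test compound. Plants were grown in a greenhouse, and herbicidal effect and crop phytotoxicity were scored against set standards 21 days after application.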

[30] = tested on: China jute (Ab); assay: as above; type: in vivo; set-up: scale not given here; conditions: dose 6.3 g ai/10 a, evaluated 21st day after application
In short: as §7

[31] = tested on: slender amaranth (Am); assay: as above; type: in vivo; set-up: scale not given here; conditions: dose 6.3 g ai/10 a, evaluated 21st day after application
In short: as §7

[32] = tested on: pale smartweed (Po); assay: as above; type: in vivo; set-up: scale not given here; conditions: dose 6.3 g ai/10 a, evaluated 21st day after application
In short: as §7

[33] = tested on: common lambsquarters (Ch); assay: as above; type: in vivo; set-up: scale not given here; conditions: dose 6.3 g ai/10 a, evaluated 21st day after application
In short: as §7

[34] = tested on: corn (Ze); assay: Test Example 7: crop plant selectivity by upland field soil treatment (corn), phytotoxicity; type: in vivo; set-up: scale not given here; conditions: dose 6.3 g ai/10a, 21st day after application
In short: as §6

[35] = tested on: wheat (Tr); assay: Test Example 9: crop plant selectivity by upland field foliage treatment (wheat), phytotoxicity; conditions: dose 1.6 g ai/10a, 14th day after treatment
In short: as §2

[36] = tested on: cotton (Go); assay: Test Example 4: crop plant selectivity by upland field soil treatment (cotton), phytotoxicity; type: in vivo; set-up: scale not given here; conditions: dose 6.3 g ai/10 a, evaluated 21st day after application
In short: as §7

[37] = tested on: corn (Ze); assay: Test Example 11: crop plant selectivity by upland field foliage treatment (corn), phytotoxicity; conditions: upland field foliage treatment, dose 1.6 g ai/10a, 14th day after treatment
In short: as §5

## CSCc1cc2c(-c3ccc(C(F)(F)F)n(C)c3=O)c(F)cc(Cl)c2o1 [Compound No. 4-44, 3-(7-chloro-5-fluoro-2-methylthiomethylbenzofuran-4-yl)-1-methyl-6-trifluoromethyl-2-(1H)-pyridone]
other
  melting point: 169 to 171 °C

## Cn1c(C(F)(F)F)ccc(-c2cc(S)c(Cl)cc2F)c1=O [Compound No. 1-42, 3-(4-chloro-2-fluoro-5-mercaptophenyl)-1-methyl-6-trifluoromethyl-2(1H)-pyridone]
other
  melting point: 141 to 142 °C

## CCOC(=O)c1c(C(F)(F)F)[nH]cc(-c2cc(OC(C)C)c(Cl)cc2F)c1=O [Compound No. 6-57, 5-(4-chloro-2-fluoro-5-isopropoxyphenyl)-3-ethoxycarbonyl-2-trifluoromethyl-4(1H)-pyridone]
other
  melting point: 118 to 119 °C

## Cn1c(C(F)(F)F)cc(Cl)c(-c2ccc(Cl)cc2)c1=O [Compound No. 11-1, 3-(4-chlorophenyl)-4-chloro-1-methyl-6-trifluoromethyl-2(1H)-pyridone]
other
  melting point: 48 to 50 °C

## CCC(c1cc2c(-c3ccc(C(F)(F)F)n(C)c3=O)c(F)cc(Cl)c2o1)S(C)(=O)=O (centres unmarked) [Compound No. 4-58, 3-[7-chloro-5-fluoro-2-(1-methylsulfonylpropyl)benzofuran-4-yl]-1-methyl-6-trifluoromethyl-2-(1H)-pyridone]
other
  melting point: 146 to 148 °C

## Cc1cc(-c2cc(O)c(Cl)cc2F)c(=O)n(C)c1C(F)(F)F [Compound No. 1-79, 3-(4-chloro-2-fluoro-5-hydroxyphenyl)-1,5-dimethyl-6-trifluoromethyl-2(1H)-pyridone]
other
  melting point: 207 to 208 °C

## Cn1c(C(F)(F)F)ccc(-c2ccc(F)cc2F)c1=O [Compound No. 1-12, 3-(2,4-difluorophenyl)-1-methyl-6-trifluoromethyl-2(1H)-pyridone]
other
  melting point: 123 to 124 °C
[1]
  Herbicidal effects Mo: 5
[2]
  Herbicidal effects Sc: 5
[3]
  Herbicidal effects Ec: 5

## Cn1c(C(F)(F)F)cc(F)c(-c2ccc(Cl)cc2)c1=O [Compound No. 11-2, 3-(4-chlorophenyl)-4-fluoro-1-methyl-6-trifluoromethyl-2(1H)-pyridone]
other
  melting point: 120 to 122 °C

## Cn1c(C(F)(F)F)cc(=O)c(-c2ccc(Cl)cc2)c1Cl [Compound No. 13-1, 3-(4-chlorophenyl)-2-chloro-1-methyl-6-trifluoromethyl-4(1H)-pyridone]
other
  melting point: 88 to 90 °C

## Cc1ccc(-c2ccc(Cl)cc2Cl)c(=O)n1C(F)F [Compound No. 1-8, 3-(2,4-dichlorophenyl)-1-difluoromethyl-6-methyl-2(1H)-pyridone]
other
  melting point: 83 to 85 °C

## Cn1c(C(F)(F)F)ccc(-c2cc(Oc3ncccn3)c(Cl)cc2Cl)c1=O [1-41]
[4]
  Herbicidal effects Ab: 5
[5]
  Herbicidal effects Am: 5
[6]
  Herbicidal effects Po: 5
[7]
  Herbicidal effects Ch: 5
[8]
  Herbicidal effects Di: 5
[9]
  Herbicidal effects Am: 5
[10]
  Herbicidal effects Po: 5
[11]
  Herbicidal effects Ch: 5
[12]
  Herbicidal effects Ci: 5
[13]
  Herbicidal effects Ec: 5
[14]
  Herbicidal effects Am: 5
[15]
  Herbicidal effects Di: 5
[16]
  Herbicidal effects Po: 5
[17]
  Herbicidal effects Ch: 5
[18]
  Herbicidal effects Ci: 5
[19]
  Herbicidal effects Ec: 5
[20]
  Herbicidal effects Ab: 5
[21]
  Herbicidal effects Am: 5
[22]
  Herbicidal effects Po: 5
[23]
  Herbicidal effects Ch: 5
[24]
  Herbicidal effects Se: 5
[25]
  Herbicidal effects Ab: 5
[26]
  Herbicidal effects Am: 5
[27]
  Herbicidal effects Po: 5
[28]
  Herbicidal effects Ch: 5
[29]
  Herbicidal effects Se: 5
[30]
  Herbicidal effects Ab: 5
[31]
  Herbicidal effects Am: 5
[32]
  Herbicidal effects Po: 5
[33]
  Herbicidal effects Ch: 5
[34]
  Phytotoxicity Ze: 1
[35]
  Phytotoxicity Tr: 2
[1]
  Herbicidal effects Mo: 5
[2]
  Herbicidal effects Sc: 5
[3]
  Herbicidal effects Ec: 5
[36]
  Phytotoxicity Go: 1
[37]
  Phytotoxicity Ze: 2
